Data as given in patent publication US20160058895A1, “RADIOLABELED GNRH ANTAGONISTS AS PET IMAGING AGENTS” (OSLO UNIVERSITETSSYKEHUS HF, priority 2013, published 2016).
“Also recorded” adds a separate entry of the source.

Tests used:
[1] = target: T1, human type I GnRH receptor (Homo sapiens, UniProt P30968); assay: Radioligand binding, cell membranes expressing human type I GnRH receptor, [125I]Triptorelin; details: Ki ± SD, n=3; competition with [125I]Triptorelin; read-out: Receptor affinity Ki for the human GnRH receptor
T1 construct: purchased Merck Millipore
T1 sequence (P30968 1-328): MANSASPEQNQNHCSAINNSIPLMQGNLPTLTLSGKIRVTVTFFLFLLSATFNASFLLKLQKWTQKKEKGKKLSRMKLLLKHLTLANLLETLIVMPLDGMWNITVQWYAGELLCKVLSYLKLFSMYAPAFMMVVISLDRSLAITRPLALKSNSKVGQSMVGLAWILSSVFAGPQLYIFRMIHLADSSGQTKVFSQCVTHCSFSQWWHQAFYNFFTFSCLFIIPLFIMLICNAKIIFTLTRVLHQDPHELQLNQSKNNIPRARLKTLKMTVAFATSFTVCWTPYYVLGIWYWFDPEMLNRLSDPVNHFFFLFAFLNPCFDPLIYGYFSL
Protocol: Radioligand binding studies were performed with 0.18-0.32 nM [^125I]LHRH-[D-Trp^6]
Further, binding curves for of compounds SB-001-RS, SB-002-RS, SB-003-RS, and SB-004-RS for the human GnRH receptor in competition for [^125I]Triptorelin were measured (n=3) (FIG. 3).

[2] = Octanol/water partition coefficient, PBS (pH 7.4)/n-octanol; format: physicochemical; details: phosphate-buffered saline (pH 7.4)/n-octanol, n=3
Protocol: Octanol/water partition coefficients were determined as follows. Approximately 10 kBq of ^18F-compounds in 50 μL PBS were diluted in 450 μL of PBS (pH 7.4) and added to 500 μL of n-octanol in an Eppendorf tube (n=3). After vortexing for 3 minutes, the tubes were centrifuged (10,300 rpm for 6 minutes) and 100 μL aliquots of the PBS and n-octanol phases were carefully transferred to separate tubes. The radioactivity of the samples was counted in a γ-counter.
Log P values were measured in a phosphate-buffered saline (pH 7.4)/n-octanol system.

[3] = Stability in rat serum at 37° C., radio-HPLC; format: in vitro ADME; details: for % Intact 18F-compound, Serum 1 h / % Intact 18F-compound, Serum 2 h: 37° C.
Protocol: (§1) During the development of embodiments of the technology provided herein, a competitive binding assay was used to measure the binding affinity to rat GnRH receptor of the two nonradioactive reference ^19F-compounds described above. Radiolabeling was performed from [^18F]fluoride using the corresponding mesylate and chloro-precursors using K[^18F]/K222 complex in DMSO. Log P values and serum stability were investigated and their brain uptake was studied by small animal PET imaging in healthy rats.
(§2) Serum and in vivo stability measurements were performed as follows. Approximately 5 MBq of ^18F compounds (e.g., peptides or small molecules) in PBS (50 μL) was added to freshly collected rat serum (0.4 mL) and samples were incubated at 37° C. in Eppendorf tubes. After 1 hour and 2 hours, ice-cold ethanol (400 μL) was added and the mixtures were centrifuged at 13,400 rpm for 10 minutes. The resulting supernatants were diluted with Solvent A and analyzed by radio-HPLC.
(§3) Also, the stabilities of the compounds were measured in rat serum and in vivo in rat blood and urine (Table 2). Table 2 provides the fraction (as a percentage of the initial amount) of compound remaining in serum, blood, or urine as a function of time (e.g., after 1 and 2 hours).

[4] = In vivo stability in rat blood and urine; details: for % Intact 18F-compound, Blood 1 h: rat blood; for % Intact 18F-compound, Urine 1 h: rat urine
Protocol: as §2, §3

rat GnRH receptor = target: T2, rat GnRH receptor (Rattus norvegicus, UniProt P30969); assay: Radioligand binding, membranes of HEK 293 cells expressing rat GnRH receptor, [125I] LH-RH Dtrp6
T2 construct: expressed in transfected cells; host or cells: HEK 293 cells (transient transfection, membranes prepared 48 h later)
T2 sequence (P30969 1-327): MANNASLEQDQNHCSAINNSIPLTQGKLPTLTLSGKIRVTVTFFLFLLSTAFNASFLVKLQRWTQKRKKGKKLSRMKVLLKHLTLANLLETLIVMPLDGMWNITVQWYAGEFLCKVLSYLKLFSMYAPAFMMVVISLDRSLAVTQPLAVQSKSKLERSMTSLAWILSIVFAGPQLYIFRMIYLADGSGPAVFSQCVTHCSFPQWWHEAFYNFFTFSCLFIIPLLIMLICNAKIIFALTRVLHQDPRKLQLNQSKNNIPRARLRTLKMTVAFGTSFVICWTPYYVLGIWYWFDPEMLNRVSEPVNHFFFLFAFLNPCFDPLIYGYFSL
Protocol: (§4) PSA was calculated using ChemBioDraw Ultra 12.0; Clog D was experimentally determined; Ki was determined by an in vitro assay in HEK 293 cells expressing rat GnRH receptor (see below); the radiochemical yield with respect to isotope decay was corrected based on the start of synthesis, and radiochemical purity was analyzed by Radio-HPLC.
For the membrane preparation and radioligand binding assays, HEK 293 cells were grown in Dulbecco's modified Eagle's medium with 10% fetal bovine serum, penicillin (100 U/ml), and streptomycin (100 μg/ml), and transiently transfected with rat GnRH receptor using LipofectAMINE 2000 (Invitrogen) according to the manufacturer's protocol. 48 hours later, membranes were prepared and radioligand binding was performed as previously described (see, e.g., Krobert et al (2001) “The cloned human 5-HT7 receptor splice variants: a comparative characterization of their pharmacology, function and distribution” Naunyn Schmiedebergs Arch Pharmacol 363(6): 620-32). Radioligand binding studies were performed with 0.18-0.32 nM [^125I] […]
as §4, with “In Table 1, PSA” for “PSA”, “receptor;” for “receptor (see below);”, “to” for “based on”, “Radio HPLC. […]” for “Radio-HPLC.”

[5] = Log D / Log P of pilot compounds, experimentally determined; format: physicochemical; details: for logP: n-octanol / phosphate-buffered saline, pilot 18F compounds
Protocol: as §4
as §4, with “In Table 1, PSA” for “PSA”, “receptor;” for “receptor (see below);”, “to” for “based on”, “Radio HPLC.” for “Radio-HPLC.”
as §1

[6] = Brain uptake by small animal PET imaging in healthy rats; format: in vivo, rat; details: for Brain uptake (in words): healthy rats
From the text: In particular, PET images (e.g., 90-minute summed PET images) of the brain of a Sprague-Dawley rat injected with an [^18F] compound according to an embodiment of the technology show accumulation of the compound in the central regions of the brain.
as §1

Ki [1] [nM]	logP [2]	% Intact 18F-compound, Serum 1 h ([3]; rat serum) [%]	% Intact 18F-compound, Serum 2 h ([3]; rat serum) [%]	% Intact 18F-compound, Blood 1 h [4] [%]	% Intact 18F-compound, Urine 1 h [4] [%]	Compound	other results
0.6 ± 0.4						COc1cc(OCCF)cc(OC)c1NC(=O)c1ccc(Cc2cc3c(cc2C)CCCC3(C)C)o1 [SB-003-RS, N-(4-(2-fluoroethoxy)-2,6-dimethoxyphenyl)-5-((3,8,8-trimethyl-5,6,7,8-tetrahydronaphthalen-2-yl)methyl)furan-2-carboxamide]	
2.1 ± 2.1						COc1cc(OCCF)cc(OC)c1NC(=O)c1ccc(Oc2cc3c(cc2C)CCC3(C)C)o1 [SB-004-RS, N-(4-(2-fluoroethoxy)-2,6-dimethoxyphenyl)-5-((3,3,6-trimethyl-2,3-dihydro-1H-inden-5-yl)oxy)furan-2-carboxamide]	
3.7 ± 2.3						COc1cc(NCCCF)cc(OC)c1NC(=O)c1ccc(Cc2cc3c(cc2C)CCCC3(C)C)o1 [SB-001-RS, N-(4-((3-fluoropropyl)amino)-2,6-dimethoxyphenyl)-5-((3,8,8-trimethyl-5,6,7,8-tetrahydronaphthalen-2-yl)methyl)furan-2-carboxamide]	
	1.82	>95	97.3	97.5	99	COc1cc(OCCF)cc(OC)c1NC(=O)c1ccc(Oc2cc3c(cc2C)CCC3(C)C)o1 [[^18F]SB-004-RS, N-(4-(2-fluoroethoxy)-2,6-dimethoxyphenyl)-5-((3,3,6-trimethyl-2,3-dihydro-1H-inden-5-yl)oxy)furan-2-carboxamide]	
						COc1nc(OCC[18F])nc(OC)c1NC(=O)c1ccc(Oc2cc3c(cc2C)CCC3(C)C)o1 [[^18F]SB7-65-18]	Ki (rat GnRH receptor): 1.36 nM; logP ([5]; pH 7.4): 1.3; logD ([5]; pH 7.4, experimentally determined, read-out: CLog D (pH 7.4)): 1.22; Stability in rat serum ([3]; rat serum, over 2 hours): stable; Brain uptake (in words) [6]: failed to show significant brain uptake
						COc1nc([18F])nc(OC)c1NC(=O)c1ccc(Oc2cc3c(cc2C)CCC3(C)C)o1 [[^18F]SB7-65-19]	Ki (rat GnRH receptor): 42 nM; CLog D (pH 7.4) ([5]; experimentally determined): 1.33; logP ([5]; pH 7.4): 1.4; half-life at 11.1 MBq/mL ([3]; rat, serum, hydrolysis of the amide bond, read-out: Serum stability t1/2): < 30 min; Brain uptake (in words) [6]: entered the brain and was clearly visibly by PET; also recorded: significant brain uptake; Brain (CNS) uptake ([6]; rat, at 10 minutes): 0.4 % ID/g
	1.43	>95	88.5	81	94.5	COc1cc(NCCCF)cc(OC)c1NC(=O)c1ccc(Cc2cc3c(cc2C)CCCC3(C)C)o1 [[^18F]SB-001-RS, N-(4-((3-fluoropropyl)amino)-2,6-dimethoxyphenyl)-5-((3,8,8-trimethyl-5,6,7,8-tetrahydronaphthalen-2-yl)methyl)furan-2-carboxamide]	
	1.68	>95	91.1	88.1	18.5	COc1cc(OCCF)cc(OC)c1NC(=O)c1ccc(Cc2cc3c(cc2C)CCCC3(C)C)o1 [[^18F]SB-003-RS, N-(4-(2-fluoroethoxy)-2,6-dimethoxyphenyl)-5-((3,8,8-trimethyl-5,6,7,8-tetrahydronaphthalen-2-yl)methyl)furan-2-carboxamide]	
1.5 ± 3.9						COc1cc(NCCCF)cc(OC)c1NC(=O)c1ccc(Oc2cc3c(cc2C)CCC3(C)C)o1 [SB-002-RS, N-(4-((3-fluoropropyl)amino)-2,6-dimethoxyphenyl)-5-((3,3,6-trimethyl-2,3-dihydro-1H-inden-5-yl)oxy)furan-2-carboxamide]	
	1.49	99.1	97.5	97	99	COc1cc(NCCCF)cc(OC)c1NC(=O)c1ccc(Oc2cc3c(cc2C)CCC3(C)C)o1 [[^18F]SB-002-RS, N-(4-((3-fluoropropyl)amino)-2,6-dimethoxyphenyl)-5-((3,3,6-trimethyl-2,3-dihydro-1H-inden-5-yl)oxy)furan-2-carboxamide]	
